{"source": "patent US8557859B2", "about": "“Immunomodulatory compositions” (Summit (Wales) Limited, priority 2003, dated 2013)", "assay": "Treatment of murine HSV-1 infection: body weight", "format": "in vivo, BALB/c mice", "key": {"[1]": {"conditions": "Group 1: 15 mg/kg i.p. daily, day 0"}, "[2]": {"conditions": "Group 1: 15 mg/kg i.p. daily, day 1"}, "[3]": {"conditions": "Group 1: 15 mg/kg i.p. daily, day 2"}, "[4]": {"conditions": "Group 1: 15 mg/kg i.p. daily, day 3"}, "[5]": {"conditions": "Group 1: 15 mg/kg i.p. daily, day 4"}, "[6]": {"conditions": "Group 1: 15 mg/kg i.p. daily, day 5"}, "[7]": {"conditions": "Group 1: 15 mg/kg i.p. daily, day 6"}, "[8]": {"conditions": "Group 1: 15 mg/kg i.p. daily, day 7"}, "[9]": {"conditions": "Group 1: 15 mg/kg i.p. daily, day 8"}, "[10]": {"conditions": "Group 1: 15 mg/kg i.p. daily, day −2"}, "[11]": {"conditions": "Group 2: 150 mg/kg i.p. daily, day 0"}, "[12]": {"conditions": "Group 2: 150 mg/kg i.p. daily, day 1"}, "[13]": {"conditions": "Group 2: 150 mg/kg i.p. daily, day 2"}, "[14]": {"conditions": "Group 2: 150 mg/kg i.p. daily, day 3"}, "[15]": {"conditions": "Group 2: 150 mg/kg i.p. daily, day 4"}, "[16]": {"conditions": "Group 2: 150 mg/kg i.p. daily, day 5"}, "[17]": {"conditions": "Group 2: 150 mg/kg i.p. daily, day 6"}, "[18]": {"conditions": "Group 2: 150 mg/kg i.p. daily, day 7"}, "[19]": {"conditions": "Group 2: 150 mg/kg i.p. daily, day 8"}, "[20]": {"conditions": "Group 2: 150 mg/kg i.p. daily, day −2"}}, "data": [{"smiles": "OC[C@@H]1[C@@H](O)[C@H](O)[C@H]2[C@H](O)[C@@H](O)CN21", "note": "[casuarine (8), (1R,2R,3R,6S,7S,7aR)-3-(hydroxymethyl)-1,2,6,7-tetrahydroxypyrrolizidine]", "values": [{"measurement": "Group mean weight", "setting": "[1]", "value": 16.7, "unit": "g"}, {"measurement": "Weight (% change)", "setting": "[1]", "value": 3.1, "unit": "%"}, {"measurement": "Group mean weight", "setting": "[2]", "value": 17.1, "unit": "g"}, {"measurement": "Weight (% change)", "setting": "[2]", "value": 5.6, "unit": "%"}, {"measurement": "Group mean weight", "setting": "[3]", "value": 17.1, "unit": "g"}, {"measurement": "Weight (% change)", "setting": "[3]", "value": 5.6, "unit": "%"}, {"measurement": "Group mean weight", "setting": "[4]", "value": 17.6, "unit": "g"}, {"measurement": "Weight (% change)", "setting": "[4]", "value": 8.6, "unit": "%"}, {"measurement": "Group mean weight", "setting": "[5]", "value": 17.4, "unit": "g"}, {"measurement": "Weight (% change)", "setting": "[5]", "value": 7.4, "unit": "%"}, {"measurement": "Group mean weight", "setting": "[6]", "value": 17.6, "unit": "g"}, {"measurement": "Weight (% change)", "setting": "[6]", "value": 8.6, "unit": "%"}, {"measurement": "Group mean weight", "setting": "[7]", "value": 17.7, "unit": "g"}, {"measurement": "Weight (% change)", "setting": "[7]", "value": 9.2, "unit": "%"}, {"measurement": "Group mean weight", "setting": "[8]", "value": 17.4, "unit": "g"}, {"measurement": "Weight (% change)", "setting": "[8]", "value": 7.4, "unit": "%"}, {"measurement": "Group mean weight", "setting": "[9]", "value": 17.7, "unit": "g"}, {"measurement": "Weight (% change)", "setting": "[9]", "value": 9.3, "unit": "%"}, {"measurement": "Group mean weight", "setting": "[10]", "value": 16.2, "unit": "g"}, {"measurement": "Weight (% change)", "setting": "[10]", "value": 0, "unit": "%"}, {"measurement": "Group mean weight", "setting": "[11]", "value": 16, "unit": "g"}, {"measurement": "Weight (% change)", "setting": "[11]", "value": 3.2, "unit": "%"}, {"measurement": "Group mean weight", "setting": "[12]", "value": 16.4, "unit": "g"}, {"measurement": "Weight (% change)", "setting": "[12]", "value": 5.8, "unit": "%"}, {"measurement": "Group mean weight", "setting": "[13]", "value": 16.3, "unit": "g"}, {"measurement": "Weight (% change)", "setting": "[13]", "value": 5.2, "unit": "%"}, {"measurement": "Group mean weight", "setting": "[14]", "value": 16.6, "unit": "g"}, {"measurement": "Weight (% change)", "setting": "[14]", "value": 7.1, "unit": "%"}, {"measurement": "Group mean weight", "setting": "[15]", "value": 16.4, "unit": "g"}, {"measurement": "Weight (% change)", "setting": "[15]", "value": 5.8, "unit": "%"}, {"measurement": "Group mean weight", "setting": "[16]", "value": 16.8, "unit": "g"}, {"measurement": "Weight (% change)", "setting": "[16]", "value": 8.4, "unit": "%"}, {"measurement": "Group mean weight", "setting": "[17]", "value": 17, "unit": "g"}, {"measurement": "Weight (% change)", "setting": "[17]", "value": 9.7, "unit": "%"}, {"measurement": "Group mean weight", "setting": "[18]", "value": 16.7, "unit": "g"}, {"measurement": "Weight (% change)", "setting": "[18]", "value": 7.7, "unit": "%"}, {"measurement": "Group mean weight", "setting": "[19]", "value": 16.8, "unit": "g"}, {"measurement": "Weight (% change)", "setting": "[19]", "value": 8.4, "unit": "%"}, {"measurement": "Group mean weight", "setting": "[20]", "value": 15.5, "unit": "g"}, {"measurement": "Weight (% change)", "setting": "[20]", "value": 0, "unit": "%"}]}]}
